Laboratory results reported in US9326973B2, “Hepatitis C virus inhibitors” (priority 2012, dated 2016).

Tested on: HCV replicon, genotype-1a variant with glutamine 30 changed to glutamate in the NS5A protein
Test: microbe, parasite or virus in culture
Assay type: cell-based, HCV genotype 1a
Conditions: HCV replicon genotype 1a Q30E (Q→E) variant; test compound titrated with an NS5A-targeting compound (BMS-790052 fixed at 200 nM); ranking of synergist activity
Procedure, shortened: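 Synergy was assessed by combining several fixed amounts of an NS5A-targeting compound with a titration of the second compound of interest.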

SMILES | Fold-Synergistic 1a (Q30E)
CC(C)[C@H](NC(=O)[C@@H]1C[C@@H](O)CN1C(=O)OC(C)(C)C)c1nc(-c2ccc(-c3ccc(-c4c[nH]c([C@@H](NC(=O)[C@@H]5C[C@@H](O)CN5C(=O)OC(C)(C)C)C(C)C)n4)cc3)cc2)c[nH]1 [Compound W-97] | >100 fold
CC(C)(C)OC(=O)N1C[C@@H](O)C[C@H]1C(=O)N[C@H](c1nc(-c2ccc(-c3ccc(-c4c[nH]c([C@@H](NC(=O)[C@@H]5C[C@H](O)CN5C(=O)OC(C)(C)C)C(C)(C)C)n4)cc3)cc2)c[nH]1)C(C)(C)C [Compound W-98] | >100 fold
CC(C)(C)OC(=O)N1C[C@@H](O)C[C@H]1C(=O)N[C@H](c1nc(-c2ccc(-c3ccc(-c4c[nH]c([C@@H](NC(=O)[C@@H]5C[C@H](O)CN5C(=O)OC(C)(C)C)C5(C)CC5)n4)cc3)cc2)c[nH]1)C1(C)CC1 [Compound W-99] | >100 fold
CC(C)[C@H](NC(=O)[C@@H]1C[C@H](O)CN1C(=O)OC(C)(C)C)c1nc(-c2ccc(-c3ccc(-c4c[nH]c([C@@H](NC(=O)[C@@H]5C[C@H](O)CN5C(=O)OC(C)(C)C)C(C)C)n4)cc3)cc2)c[nH]1 [Compound W-100] | >100 fold
CC(C)(C)[C@H](NC(=O)[C@@H]1C[C@@H](F)CN1C(=O)C1CC1)c1nc(-c2ccc(-c3ccc(-c4c[nH]c([C@@H](NC(=O)[C@@H]5C[C@@H](F)CN5C(=O)C5CC5)C(C)(C)C)n4)cc3)cc2)c[nH]1 [Compound W-104] | >100 fold
CC(C)(C)C(=O)N1C[C@H](F)C[C@H]1C(=O)N[C@H](c1nc(-c2ccc(-c3ccc(-c4c[nH]c([C@@H](NC(=O)[C@@H]5C[C@@H](F)CN5C(=O)C(C)(C)C)C(C)(C)C)n4)cc3)cc2)c[nH]1)C(C)(C)C [Compound W-105] | >100 fold
CC(C)OC(=O)N1C[C@H](F)C[C@H]1C(=O)N[C@H](c1nc(-c2ccc(-c3ccc(-c4c[nH]c([C@@H](NC(=O)[C@@H]5C[C@@H](F)CN5C(=O)OC(C)C)C(C)(C)C)n4)cc3)cc2)c[nH]1)C(C)(C)C [Compound W-107] | >100 fold
CC(C)(C)[C@H](NC(=O)[C@@H]1C[C@@H](F)CN1C(=O)OCCF)c1nc(-c2ccc(-c3ccc(-c4c[nH]c([C@@H](NC(=O)[C@@H]5C[C@@H](F)CN5C(=O)OCCF)C(C)(C)C)n4)cc3)cc2)c[nH]1 [Compound W-108] | >100 fold
COC(=O)N1C[C@H](F)C[C@H]1C(=O)N[C@H](c1nc(-c2ccc(-c3ccc(-c4c[nH]c([C@@H](NC(=O)[C@@H]5C[C@@H](F)CN5C(=O)OC)C(C)(C)C)n4)cc3)cc2)c[nH]1)C(C)(C)C [Compound W-109] | >100 fold
COCCOC(=O)N1C[C@H](F)C[C@H]1C(=O)N[C@H](c1nc(-c2ccc(-c3ccc(-c4c[nH]c([C@@H](NC(=O)[C@@H]5C[C@@H](F)CN5C(=O)OCCOC)C(C)(C)C)n4)cc3)cc2)c[nH]1)C(C)(C)C [Compound W-110] | >100 fold
CO[C@H]1C[C@@H](C(=O)N[C@H](c2nc(-c3ccc(-c4ccc(-c5c[nH]c([C@@H](NC(=O)[C@@H]6C[C@H](OC)CN6C(=O)OC(C)(C)C)C(C)(C)C)n5)cc4)cc3)c[nH]2)C(C)(C)C)N(C(=O)OC(C)(C)C)C1 [Compound W-115] | >100 fold
CC1(OC(=O)N2C[C@H](F)C[C@H]2C(=O)N[C@H](c2nc(-c3ccc(-c4ccc(-c5c[nH]c([C@@H](NC(=O)[C@@H]6C[C@@H](F)CN6C(=O)OC6(C)CC6)C(C)(C)C)n5)cc4)cc3)c[nH]2)C(C)(C)C)CC1 [Compound W-119] | >100 fold
C[C@@H]1C[C@@H](C(=O)N[C@H](c2nc(-c3ccc(-c4ccc(-c5c[nH]c([C@@H](NC(=O)[C@@H]6C[C@@H](C)CN6C(=O)OC(C)(C)C)C(C)(C)C)n5)cc4)cc3)c[nH]2)C(C)(C)C)N(C(=O)OC(C)(C)C)C1 [Compound W-120] | >100 fold
CC(C)(C)OC(=O)N1[C@@H]2CC[C@@H](C2)[C@H]1C(=O)N[C@H](c1nc(-c2ccc(-c3ccc(-c4c[nH]c([C@@H](NC(=O)[C@@H]5[C@H]6CC[C@H](C6)N5C(=O)OC(C)(C)C)C(C)(C)C)n4)cc3)cc2)c[nH]1)C(C)(C)C [Compound W-121] | >100 fold
CC1(C)CC(C(=O)N[C@H](c2nc(-c3ccc(-c4ccc(-c5c[nH]c([C@@H](NC(=O)C6CCOC(C)(C)C6)C(C)(C)C)n5)cc4)cc3)c[nH]2)C(C)(C)C)CCO1 (some centres unmarked) [Compound W-122] | >100 fold
CC(C)(C)[C@H](NC(=O)C1CCOCC1)c1nc(-c2ccc(-c3ccc(-c4c[nH]c([C@@H](NC(=O)C5CCOCC5)C(C)(C)C)n4)cc3)cc2)c[nH]1 [Compound W-123] | >100 fold
COC(=O)C1(C(=O)N[C@H](c2nc(-c3ccc(-c4ccc(-c5c[nH]c([C@@H](NC(=O)C6(C(=O)OC)CC6)C(C)(C)C)n5)cc4)cc3)c[nH]2)C(C)(C)C)CC1 [Compound W-124] | >100 fold
CC(CO)(CO)C(=O)N[C@H](c1nc(-c2ccc(-c3ccc(-c4c[nH]c([C@@H](NC(=O)C(C)(CO)CO)C(C)(C)C)n4)cc3)cc2)c[nH]1)C(C)(C)C [Compound W-125] | >100 fold

SMILES | Fold-Synergistic 1a (Q30E)
CCOC(=O)C(C)(C)C(=O)N[C@H](c1nc(-c2ccc(-c3ccc(-c4c[nH]c([C@@H](NC(=O)C(C)(C)C(=O)OCC)C(C)(C)C)n4)cc3)cc2)c[nH]1)C(C)(C)C [Compound W-126] | >100 fold
CC(C)(C)[C@H](NC(=O)C12CCC(O)(CC1)CC2)c1nc(-c2ccc(-c3ccc(-c4c[nH]c([C@@H](NC(=O)C56CCC(O)(CC5)CC6)C(C)(C)C)n4)cc3)cc2)c[nH]1 [Compound W-128] | >100 fold
CC(C)(C)[C@H](NC(=O)C1CCOC1)c1nc(-c2ccc(-c3ccc(-c4c[nH]c([C@@H](NC(=O)C5CCOC5)C(C)(C)C)n4)cc3)cc2)c[nH]1 (some centres unmarked) [Compound W-129] | >10 fold
CC1(C(=O)N[C@H](c2nc(-c3ccc(-c4ccc(-c5c[nH]c([C@@H](NC(=O)C6(C)CCOCC6)C(C)(C)C)n5)cc4)cc3)c[nH]2)C(C)(C)C)CCOCC1 [Compound W-130] | >100 fold
CC(C)(C)[C@H](NC(=O)C1CCCOC1)c1nc(-c2ccc(-c3ccc(-c4c[nH]c([C@@H](NC(=O)C5CCCOC5)C(C)(C)C)n4)cc3)cc2)c[nH]1 (some centres unmarked) [Compound W-131] | >100 fold
CC(C)(C)OC(=O)NC1(C(=O)N[C@H](c2nc(-c3ccc(-c4ccc(-c5c[nH]c([C@@H](NC(=O)C6(NC(=O)OC(C)(C)C)CCOCC6)C(C)(C)C)n5)cc4)cc3)c[nH]2)C(C)(C)C)CCOCC1 [Compound W-132] | >100 fold
CC(C)(C)[C@H](NC(=O)[C@H]1CC[C@@H](O)CC1)c1nc(-c2ccc(-c3ccc(-c4c[nH]c([C@@H](NC(=O)[C@H]5CC[C@@H](O)CC5)C(C)(C)C)n4)cc3)cc2)c[nH]1 [Compound W-134] | >100 fold
CC(C)(C(=O)N[C@H](c1nc(-c2ccc(-c3ccc(-c4c[nH]c([C@@H](NC(=O)C(C)(C)C(=O)N5CCC(O)CC5)C(C)(C)C)n4)cc3)cc2)c[nH]1)C(C)(C)C)C(=O)N1CCC(O)CC1 [Compound W-136] | >10 fold
CN(C)C(=O)C(C)(C)C(=O)N[C@H](c1nc(-c2ccc(-c3ccc(-c4c[nH]c([C@@H](NC(=O)C(C)(C)C(=O)N(C)C)C(C)(C)C)n4)cc3)cc2)c[nH]1)C(C)(C)C [Compound W-138] | >100 fold
CC(C)(C(=O)NCC(F)(F)F)C(=O)N[C@H](c1nc(-c2ccc(-c3ccc(-c4c[nH]c([C@@H](NC(=O)C(C)(C)C(=O)NCC(F)(F)F)C(C)(C)C)n4)cc3)cc2)c[nH]1)C(C)(C)C [Compound W-139] | >100 fold
CN(C(=O)C(C)(C)C(=O)N[C@H](c1nc(-c2ccc(-c3ccc(-c4c[nH]c([C@@H](NC(=O)C(C)(C)C(=O)N(C)C5CC5)C(C)(C)C)n4)cc3)cc2)c[nH]1)C(C)(C)C)C1CC1 [Compound W-140] | <10 fold
CC(C)(C(=O)N[C@H](c1nc(-c2ccc(-c3ccc(-c4c[nH]c([C@@H](NC(=O)C(C)(C)C(=O)N5CCC(F)(F)CC5)C(C)(C)C)n4)cc3)cc2)c[nH]1)C(C)(C)C)C(=O)N1CCC(F)(F)CC1 [Compound W-141] | >100 fold
CC(C)(C(=O)N[C@H](c1nc(-c2ccc(-c3ccc(-c4c[nH]c([C@@H](NC(=O)C(C)(C)C(=O)N5CCC(F)CC5)C(C)(C)C)n4)cc3)cc2)c[nH]1)C(C)(C)C)C(=O)N1CCC(F)CC1 [Compound W-142] | >100 fold
COC1CCN(C(=O)C(C)(C)C(=O)N[C@H](c2nc(-c3ccc(-c4ccc(-c5c[nH]c([C@@H](NC(=O)C(C)(C)C(=O)N6CCC(OC)CC6)C(C)(C)C)n5)cc4)cc3)c[nH]2)C(C)(C)C)CC1 [Compound W-143] | >100 fold
CC(C)(C(=O)N[C@H](c1nc(-c2ccc(-c3ccc(-c4c[nH]c([C@@H](NC(=O)C(C)(C)C(=O)N5CC(O)C5)C(C)(C)C)n4)cc3)cc2)c[nH]1)C(C)(C)C)C(=O)N1CC(O)C1 [Compound W-144] | >10 fold
CC(C)(C(=O)N[C@H](c1nc(-c2ccc(-c3ccc(-c4c[nH]c([C@@H](NC(=O)C(C)(C)C(=O)N5CC6CCC(C5)O6)C(C)(C)C)n4)cc3)cc2)c[nH]1)C(C)(C)C)C(=O)N1CC2CCC(C1)O2 [Compound W-145] | >10 fold
C[C@@H]1CCCCN1C(=O)C(C)(C)C(=O)N[C@H](c1nc(-c2ccc(-c3ccc(-c4c[nH]c([C@@H](NC(=O)C(C)(C)C(=O)N5CCCC[C@H]5C)C(C)(C)C)n4)cc3)cc2)c[nH]1)C(C)(C)C [Compound W-148] | >100 fold
